Experimental data taken from patent US8901167B2, “Product and process for inhibition of biofilm development” (National Jewish Health, priority 2004, dated 2014).
In brackets after ≈: the same amount, converted by molar mass.

Experiments:
[1] = system: P. aeruginosa strain PA01; experiment: Antibiotic susceptibility of planktonic population (MIC), NCCLS assay; assay type: cell-based; settings: Pseudomonas aeruginosa
Protocol: (§1) As human neutrophils enhance biofilm development, the inventors questioned if biofilms formed in the presence of neutrophils had altered patterns of antibiotic resistance. Biofilms and planktonic P. aeruginosa grown in the presence or absence of neutrophils for 24 hours were tested for susceptibility to four clinically relevant classes of antibiotics. […] No significant changes in antibiotic susceptibilities was detected in planktonic P. aeruginosa in the presence of neutrophils. This selective modification of antibiotic resistance supports the conclusion that neutrophils mediate phenotypic changes in addition to greater biofilm thickness.

[2] = system: P. aeruginosa strain PA01 biofilm; experiment: Antibiotic susceptibility of biofilm population (MBEC), NCCLS assay; assay type: cell-based; settings: for Susceptibility of biofilms grown in the presence of neutrophils versus absence: biofilms grown 24 hours
Protocol: as §1

[3] = system: P. aeruginosa PA01 biofilm; assay type: cell-based; settings: for Effect on neutrophil-induced enhancement of biofilm formation: CV staining, DNase I 90 Kunitz units/ml, gelsolin 200 nM, FIG. 3C
Protocol: A static biofilm assay was used with polypropylene tubes (9). PA01 was grown overnight under constant rotation to late stationary phase at 37° C. in LB. All biofilm studies were initiated with neutrophils (1×10^7 cells/ml) and PA01 (1×10^6 CFU/ml) in suspension, and cultures were incubated under stationary conditions at 37° C. P. aeruginosa adherent to the tube was considered to be a biofilm, while bacteria not adherent to the surface of the tube was considered to be “planktonic”. Viable P. aeruginosa biofilm and planktonic cells were quantified by sonicating the adherent bacteria in LB, followed by serial dilution and plating to determine CFUs on Pseudomonas Isolation Agar (Difco, Sparks, Md.). P. aeruginosa biofilm density was quantified by crystal violet (CV) staining (9). The contribution of background staining of neutrophil components, tubes and reagents were subtracted from depicted values. Neutrophils were lysed with 0.1% Tween 20 (BioRad, Hercules, Calif.) for 30 min. Neutrophil lysates relatively depleted of F-actin were prepared by precipitating the F-actin using the F-actin/G-actin In Vivo Biochem Kit (Cytoskeleton, Denver, Colo.). The total protein present in the whole cell lysate and the F-actin depleted lysate was determined by the Bradford Protein Assay (BioRad, Hercules, Calif.). Biofilm exopolysaccharide was determined by total carbohydrate assays as previously described (15).
Genomic DNA was isolated from neutrophils and P. aeruginosa using the DNeasy Tissue Kit (Qiagen, Valencia, Calif.) according to the manufacturer's protocol. Actin and DNA polymerization was performed as described previously (38). Effects of filament cleavage was tested by initially treating the samples with 90 Kunitz units/ml of DNase I (43) and/or 200 nM gelsolin (Sigma) (42). Granule proteins were isolated from homogenized human neutrophils by differential centrifugation in a discontinuous Percoll/sucrose gradient (34). Heavy and light granules were immediately suspended in RPMI media and added to P. aeruginosa.

P. aeruginosa biofilm [4] = experiment: NUNC-TSP biofilm growth of P. aeruginosa suspended in mucin; assay type: cell-based
Text: When P. aeruginosa was suspended in mucin rather then RPMI media, a similar effect was observed on NUNC-TSP biofilm growth. […] These aggregates of P. aeruginosa may represent the predominant structure of biofilms that are present in the CF airway, and the combination of neutrophils with mucin appears to enhance their formation.

P. aeruginosa biofilm [5] = settings: literature refs 39, 43; cited from earlier work
actin-DNA filaments = experiment: Fluorescence microscopy of actin-DNA filaments in neutrophil lysates and CF sputum; parameters: species or system human; settings: data not shown
Protocol: Samples of sputa from CF patients chronically infected with P. aeruginosa were frozen in liquid nitrogen and stored at −20° C. At the time of analysis, sputa were thawed and resuspended carefully in PBS (1:4 vol/vol ratio) containing 10^7 CFU/ml of P. aeruginosa labeled with the intracellular fluorescent conjugate (CFDA SE) as described in the actin-binding protocol. Samples were incubated for 4 hours at 37° C., then dried on Superfrost/Plus microscope slides (Fisher Scientific) and stained for 15 min with 10 μl of 0.6 μM Alexa Fluor 546 Phalloidin (Molecular Probes), 10 μl of 0.2 μM DAPI, dilactate (Molecular Probes), to visualize F-actin and DNA. Visualization of actin (546/576 nm), DNA (358/461 nm), and P. aeruginosa (492/517 nm) were performed sequentially on the same field, followed by an “overlay” view at all 3 wavelengths. Neutrophil lysates were also combined with P. aeruginosa labeled with CFDA SE for 4 hrs at 37° C., and staining of F-actin and DNA was conducted as described for CF sputa.

[6] = PA01 + PMN, planktonic, grown with neutrophils 24 hours
[7] = PA01 planktonic, without neutrophils
[8] = PA01 + PMN, biofilm grown with neutrophils 24 hours
[9] = PA01 biofilm, without neutrophils

CC[C@H]1OC(=O)[C@H](C)[C@@H](O[C@H]2C[C@@](C)(OC)[C@@H](O)[C@H](C)O2)[C@H](C)[C@@H](O[C@@H]2O[C@H](C)C[C@H](N(C)C)[C@H]2O)[C@](C)(O)C[C@@H](C)CN(C)[C@H](C)[C@@H](O)[C@]1(C)O [Azithromycin]
MIC [1, 6]: 32 µg/mL | MIC [1, 7]: 64 µg/mL (≈ 85.4 µM) | MBEC [2, 8]: 1024 µg/mL | MBEC [2, 9]: >1024 µg/mL | Susceptibility of biofilms grown in the presence of neutrophils versus absence [2]: unchanged

NC[C@H]1O[C@H](O[C@H]2[C@H](O)[C@@H](O[C@H]3O[C@H](CO)[C@@H](O)[C@H](N)[C@H]3O)[C@H](N)C[C@@H]2N)[C@H](N)C[C@@H]1O [Tobramycin]
MIC [1, 6]: 0.5 µg/mL | MIC [1, 7]: 1 µg/mL (≈ 2.14 µM) | MBEC [2, 8]: 256 µg/mL | MBEC [2, 9]: >1024 µg/mL | Susceptibility of biofilms grown in the presence of neutrophils versus absence [2]: significantly greater susceptibility

gelsolin
Effect on neutrophil-induced enhancement of biofilm formation [3]: significantly reduced the neutrophil-induced enhancement of the biofilm

O=C(O)c1cn(C2CC2)c2cc(N3CCNCC3)c(F)cc2c1=O [Ciprofloxacin]
MIC [1, 6]: 2 µg/mL | MIC [1, 7]: 0.5 µg/mL (≈ 1.51 µM) | MBEC [2, 8]: 128 µg/mL | MBEC [2, 9]: 512 µg/mL | Susceptibility of biofilms grown in the presence of neutrophils versus absence [2]: significantly greater susceptibility

mucin
Effect on biofilm growth (P. aeruginosa biofilm [4]; absence of neutrophils): increased biofilm growth | Effect on biofilm growth (P. aeruginosa biofilm [4]; presence of neutrophils): no change

CC(C)(O/N=C(\C(=O)N[C@@H]1C(=O)N2C(C(=O)[O-])=C(C[n+]3ccccc3)CS[C@H]12)c1csc(N)n1)C(=O)O [Ceftazidime]
MIC [1, 6]: 2 µg/mL | MIC [1, 7]: 2 µg/mL (≈ 3.66 µM) | MBEC [2, 8]: >1024 µg/mL | MBEC [2, 9]: >1024 µg/mL | Susceptibility of biofilms grown in the presence of neutrophils versus absence [2]: unchanged

DNase
Effect on bacterial growth or neutrophil survival [3]: without significantly inhibiting bacterial growth or neutrophil survival | Effect on neutrophil-induced enhancement of biofilm formation [3]: abolished much of the neutrophil-induced enhancement of biofilm formation | Effect on P. aeruginosa biofilm formation (P. aeruginosa biofilm [5]): strongly inhibited biofilm formation | Disruption of actin-DNA filaments (actin-DNA filaments): near complete disruption of the actin-DNA filaments
